In PubChem BioAssay (NCI):
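Interpolation was linear, between the two tested concentrations surrounding the appropriate level; five concentrations were tested over 48 hours in 96-well plates. The concentration for 50% growth inhibition is given as GI50. Definition used: TGI = concentration required for complete inhibition of growth.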

Columns and labels:
Assay in all cases: growth of human tumour cells (NCI), 48 h
UACC-62 melanoma = tested on: UACC-62 melanoma
NCI-H23 lung = tested on: NCI-H23 lung
DU-145 prostate = tested on: DU-145 prostate
HCT-116 colon = tested on: HCT-116 colon
SK-MEL-28 melanoma = tested on: SK-MEL-28 melanoma
SNB-75 CNS = tested on: SNB-75 CNS
TK-10 renal = tested on: TK-10 renal
CAKI-1 renal = tested on: CAKI-1 renal
MCF7 breast = tested on: MCF7 breast
MDA-MB-231 breast = tested on: MDA-MB-231 breast
RPMI-8226 leukemia = tested on: RPMI-8226 leukemia
SF-539 CNS = tested on: SF-539 CNS
U251 CNS = tested on: U251 CNS
OVCAR-8 ovarian = tested on: OVCAR-8 ovarian
UO-31 renal = tested on: UO-31 renal
EKVX NSCLC = tested on: EKVX NSCLC
SK-MEL-5 melanoma = tested on: SK-MEL-5 melanoma
NCI-H522 lung = tested on: NCI-H522 lung
SW-620 colon = tested on: SW-620 colon
OVCAR-5 ovarian = tested on: OVCAR-5 ovarian
HOP-62 NSCLC = tested on: HOP-62 NSCLC
SF-268 CNS = tested on: SF-268 CNS
A498 renal = tested on: A498 renal
HS 578T breast = tested on: HS 578T breast
SK-OV-3 ovarian = tested on: SK-OV-3 ovarian
OVCAR-3 ovarian = tested on: OVCAR-3 ovarian
OVCAR-4 ovarian = tested on: OVCAR-4 ovarian
MDA-MB-435 = tested on: MDA-MB-435
NCI-H460 lung = tested on: NCI-H460 lung
M14 melanoma = tested on: M14 melanoma
HCC-2998 colon = tested on: HCC-2998 colon
SK-MEL-2 melanoma = tested on: SK-MEL-2 melanoma
HCT-15 colon = tested on: HCT-15 colon
COLO 205 colon = tested on: COLO 205 colon
T-47D breast = tested on: T-47D breast
RXF 393 renal = tested on: RXF 393 renal
ACHN renal = tested on: ACHN renal
MALME-3M melanoma = tested on: MALME-3M melanoma
HOP-92 NSCLC = tested on: HOP-92 NSCLC
IGROV1 ovarian = tested on: IGROV1 ovarian
NCI-H226 lung = tested on: NCI-H226 lung
NCI/ADR-RES ovarian = tested on: NCI/ADR-RES ovarian
UACC-257 melanoma = tested on: UACC-257 melanoma
A549 NSCLC = tested on: A549 NSCLC
BT-549 breast = tested on: BT-549 breast
LOX IMVI melanoma = tested on: LOX IMVI melanoma
SN12C renal = tested on: SN12C renal
HT29 colon = tested on: HT29 colon
KM12 colon = tested on: KM12 colon
PC-3 prostate = tested on: PC-3 prostate
SNB-19 CNS = tested on: SNB-19 CNS
786-0 renal = tested on: 786-0 renal
SF-295 CNS = tested on: SF-295 CNS

Q: `CCCCCc1cc[n+](CC(=O)c2ccc([N+](=O)[O-])cc2)cc1` was tested. Which GI50 (UACC-62 melanoma) did it give?
A: 10.8 µM

Q: What about the TGI (UACC-62 melanoma) of the same molecule?
A: 24.1 µM

Q: What about the GI50 (NCI-H23 lung) of the same molecule?
A: 2890 nM

Q: What about the TGI (NCI-H23 lung) of the same molecule?
A: 11.9 µM

Q: And the GI50 (DU-145 prostate)?
A: 8.72 µM

Q: What about the TGI (DU-145 prostate) of the same molecule?
A: 37.8 µM

Q: And the GI50 (HCT-116 colon)?
A: 3.14 µM

Q: What about the TGI (HCT-116 colon) of the same molecule?
A: 11.4 µM

Q: What about the GI50 (SK-MEL-28 melanoma) of the same molecule?
A: 28.9 µM

Q: And the TGI (SK-MEL-28 melanoma)?
A: > 100 µM

Q: And the GI50 (SNB-75 CNS)?
A: 10.9 µM

Q: What about the TGI (SNB-75 CNS) of the same molecule?
A: 26.6 µM

Q: What about the GI50 (TK-10 renal) of the same molecule?
A: 9.65 µM

Q: And the TGI (TK-10 renal)?
A: 33.7 µM

Q: What about the GI50 (CAKI-1 renal) of the same molecule?
A: 11.2 µM

Q: And the TGI (CAKI-1 renal)?
A: 34.8 µM

Q: And the GI50 (MCF7 breast)?
A: 3.37 µM

Q: What about the TGI (MCF7 breast) of the same molecule?
A: 13.4 µM

Q: What about the GI50 (MDA-MB-231 breast) of the same molecule?
A: 6.46 µM

Q: What about the TGI (MDA-MB-231 breast) of the same molecule?
A: 35.7 µM

Q: And the GI50 (RPMI-8226 leukemia)?
A: 3.18 µM

Q: What about the TGI (RPMI-8226 leukemia) of the same molecule?
A: 17 µM

Q: And the GI50 (SF-539 CNS)?
A: 20.3 µM

Q: And the TGI (SF-539 CNS)?
A: 72.1 µM

Q: What about the GI50 (U251 CNS) of the same molecule?
A: 4.44 µM

Q: What about the TGI (U251 CNS) of the same molecule?
A: 28.2 µM

Q: What about the GI50 (OVCAR-8 ovarian) of the same molecule?
A: 5.85 µM

Q: And the TGI (OVCAR-8 ovarian)?
A: 39.6 µM

Q: What about the GI50 (UO-31 renal) of the same molecule?
A: 4.61 µM

Q: What about the TGI (UO-31 renal) of the same molecule?
A: 43.6 µM

Q: What about the GI50 (EKVX NSCLC) of the same molecule?
A: 3.5 µM

Q: And the TGI (EKVX NSCLC)?
A: 17.5 µM

Q: What about the GI50 (SK-MEL-5 melanoma) of the same molecule?
A: 1950 nM

Q: What about the TGI (SK-MEL-5 melanoma) of the same molecule?
A: 4.56 µM

Q: What about the GI50 (NCI-H522 lung) of the same molecule?
A: 1800 nM

Q: And the TGI (NCI-H522 lung)?
A: 8.53 µM

Q: And the GI50 (SW-620 colon)?
A: 3.22 µM

Q: And the TGI (SW-620 colon)?
A: > 100 µM

Q: And the GI50 (OVCAR-5 ovarian)?
A: 22 µM

Q: And the TGI (OVCAR-5 ovarian)?
A: 97.9 µM

Q: What about the GI50 (HOP-62 NSCLC) of the same molecule?
A: 3.94 µM

Q: And the TGI (HOP-62 NSCLC)?
A: 28.3 µM

Q: What about the GI50 (SF-268 CNS) of the same molecule?
A: 19.4 µM

Q: What about the TGI (SF-268 CNS) of the same molecule?
A: > 100 µM

Q: And the GI50 (A498 renal)?
A: 10.4 µM

Q: What about the TGI (A498 renal) of the same molecule?
A: 24.6 µM

Q: What about the GI50 (HS 578T breast) of the same molecule?
A: 10.2 µM

Q: And the TGI (HS 578T breast)?
A: 36.5 µM

Q: And the GI50 (SK-OV-3 ovarian)?
A: 13.1 µM

Q: What about the TGI (SK-OV-3 ovarian) of the same molecule?
A: 46.3 µM

Q: And the GI50 (OVCAR-3 ovarian)?
A: 2780 nM

Q: And the TGI (OVCAR-3 ovarian)?
A: 10.4 µM

Q: And the GI50 (OVCAR-4 ovarian)?
A: 2530 nM

Q: What about the TGI (OVCAR-4 ovarian) of the same molecule?
A: 13.1 µM

Q: What about the GI50 (MDA-MB-435) of the same molecule?
A: 3.7 µM

Q: What about the TGI (MDA-MB-435) of the same molecule?
A: 14.6 µM

Q: What about the GI50 (NCI-H460 lung) of the same molecule?
A: 3.09 µM

Q: What about the TGI (NCI-H460 lung) of the same molecule?
A: 11.6 µM

Q: And the GI50 (M14 melanoma)?
A: 7.03 µM

Q: And the TGI (M14 melanoma)?
A: 22.7 µM

Q: And the GI50 (HCC-2998 colon)?
A: 4.94 µM

Q: What about the TGI (HCC-2998 colon) of the same molecule?
A: 17.6 µM

Q: What about the GI50 (SK-MEL-2 melanoma) of the same molecule?
A: 2700 nM

Q: And the TGI (SK-MEL-2 melanoma)?
A: 8.66 µM

Q: And the GI50 (HCT-15 colon)?
A: 13.6 µM

Q: What about the TGI (HCT-15 colon) of the same molecule?
A: 49.9 µM

Q: And the GI50 (COLO 205 colon)?
A: 1620 nM

Q: And the TGI (COLO 205 colon)?
A: 2970 nM

Q: And the GI50 (T-47D breast)?
A: 6.02 µM

Q: And the TGI (T-47D breast)?
A: 28.2 µM

Q: What about the GI50 (RXF 393 renal) of the same molecule?
A: 24.3 µM

Q: What about the TGI (RXF 393 renal) of the same molecule?
A: 94.4 µM

Q: And the GI50 (ACHN renal)?
A: 11 µM

Q: What about the TGI (ACHN renal) of the same molecule?
A: 45.1 µM

Q: What about the GI50 (MALME-3M melanoma) of the same molecule?
A: 2150 nM

Q: What about the TGI (MALME-3M melanoma) of the same molecule?
A: 8 µM

Q: And the GI50 (HOP-92 NSCLC)?
A: 2200 nM

Q: What about the TGI (HOP-92 NSCLC) of the same molecule?
A: 9.84 µM

Q: What about the GI50 (IGROV1 ovarian) of the same molecule?
A: 10.1 µM

Q: And the TGI (IGROV1 ovarian)?
A: 24.4 µM

Q: What about the GI50 (NCI-H226 lung) of the same molecule?
A: 6.73 µM

Q: And the TGI (NCI-H226 lung)?
A: 24.4 µM

Q: What about the GI50 (NCI/ADR-RES ovarian) of the same molecule?
A: 18.5 µM

Q: And the TGI (NCI/ADR-RES ovarian)?
A: 52.2 µM

Q: What about the GI50 (UACC-257 melanoma) of the same molecule?
A: 2280 nM

Q: What about the TGI (UACC-257 melanoma) of the same molecule?
A: 7.08 µM

Q: What about the GI50 (A549 NSCLC) of the same molecule?
A: 4.39 µM

Q: What about the TGI (A549 NSCLC) of the same molecule?
A: 15 µM

Q: What about the GI50 (BT-549 breast) of the same molecule?
A: 4.15 µM

Q: And the TGI (BT-549 breast)?
A: 20.5 µM

Q: And the GI50 (LOX IMVI melanoma)?
A: 8.15 µM

Q: And the TGI (LOX IMVI melanoma)?
A: 22.1 µM

Q: What about the GI50 (SN12C renal) of the same molecule?
A: 9.63 µM

Q: And the TGI (SN12C renal)?
A: > 100 µM

Q: What about the GI50 (HT29 colon) of the same molecule?
A: 2390 nM

Q: What about the TGI (HT29 colon) of the same molecule?
A: 8.32 µM

Q: And the GI50 (KM12 colon)?
A: 3.69 µM

Q: And the TGI (KM12 colon)?
A: 14.1 µM

Q: What about the GI50 (PC-3 prostate) of the same molecule?
A: 4.14 µM

Q: What about the TGI (PC-3 prostate) of the same molecule?
A: 34.7 µM

Q: What about the GI50 (SNB-19 CNS) of the same molecule?
A: 8.01 µM

Q: And the TGI (SNB-19 CNS)?
A: > 100 µM

Q: What about the GI50 (786-0 renal) of the same molecule?
A: 20.1 µM

Q: And the TGI (786-0 renal)?
A: 74.2 µM

Q: What about the GI50 (SF-295 CNS) of the same molecule?
A: 6.52 µM

Q: What about the TGI (SF-295 CNS) of the same molecule?
A: 24.3 µM
